Numbers after ± are expanded uncertainties.
Conditions: Liquid; for mass density / viscosity: 298.15 K; for mass density: 101.33 kPa; for vapor or sublimation pressure: Twin ebulliometer

C1C[C@@H]2[C@H]3CC[C@H](C3)[C@@H]2C1 [exo-tetrahydrodicyclopentadiene]
Conditions | mass density [kg/m3] | vapor or sublimation pressure [kPa] | viscosity [mPa·s]
– | 931.4 ± 2 | – | 2.739 ± 0.056
393 K | – | 14.8 ± 0.9 | –
397.64 K | – | 17.5 ± 1.1 | –
402.29 K | – | 20.7 ± 1.2 | –
406.93 K | – | 24.2 ± 1.5 | –
411.57 K | – | 28.2 ± 1.7 | –
416.21 K | – | 32.7 ± 2 | –
420.86 K | – | 37.8 ± 2.3 | –
425.5 K | – | 43.3 ± 2.6 | –
430.14 K | – | 49.5 ± 3 | –
434.79 K | – | 56.3 ± 3.4 | –
439.43 K | – | 63.8 ± 3.8 | –
444.07 K | – | 72 ± 4.3 | –
448.71 K | – | 80.9 ± 4.9 | –
453.36 K | – | 90.6 ± 5.4 | –
458 K | – | 101.1 ± 6.1 | –

COC(=O)OC [dimethyl carbonate]
Conditions | mass density [kg/m3] | vapor or sublimation pressure [kPa] | viscosity [mPa·s]
– | 1063.4 ± 0.1 | – | 0.578 ± 0.016
310 K | – | 12.17 ± 0.17 | –
313.86 K | – | 14.7 ± 0.21 | –
317.71 K | – | 17.65 ± 0.25 | –
321.57 K | – | 21.05 ± 0.3 | –
325.43 K | – | 24.96 ± 0.35 | –
329.29 K | – | 29.43 ± 0.41 | –
333.14 K | – | 34.51 ± 0.48 | –
337 K | – | 40.26 ± 0.56 | –
340.86 K | – | 46.73 ± 0.66 | –
344.71 K | – | 53.99 ± 0.76 | –
348.57 K | – | 62.11 ± 0.87 | –
352.43 K | – | 71.13 ± 1 | –
356.29 K | – | 81.14 ± 1.1 | –
360.14 K | – | 92.2 ± 1.3 | –
364 K | – | 104.4 ± 1.5 | –
